Experiments:
intestinal motility = assay: Zebrafish intestinal motility (PIV-Lab velocity analysis); assay type: in vivo; settings: AhR inhibitor 10 μM or folic acid 10 μM for 2 hours
Description: For EEC Trpa1 activation using the Optovin platform, zebrafish larvae were treated with 10 μM Optovin overnight. Following Optovin treatment, unanesthetized zebrafish were mounted in 1% LMA and imaged under a 780 upright Zeiss confocal microscope using 20× water objective lenses. For all the experiments, the mid-intestine region was imaged (FIG. 10D). The intestinal epithelium was selected as the region of interest (ROI) (FIG. 10A). Serial images were obtained at 1 s/frame. A 405 nm pulse of light was applied to the ROI at 1 pulse/10 s. For some experiments (FIG. 7D-F, FIG. 10B-G), the images were obtained at 10 s/frame.
The zebrafish intestinal motility is quantified through recorded image series of zebrafish intestine using the method similar as previously described (Ganz et al., 2018). Intestinal p velocity and v velocity were used to estimate intestinal motility in zebrafish as previously described using the PIV-Lab MATLAB app (Ganz et al., 2018). A positive value of the μ velocity indicates an anterograde intestinal movement and a negative value of the μ velocity indicates a retrograde intestinal movement. The time-course p velocity number is plotted as heatmaps. When calculating the mean velocity, only the mean velocity magnitude was calculated, which therefore doesn't account for the movement direction. The MTrackJ FIJI plugin was used to quantify the mean velocity magnitude (Meijering et al., 2012).

E. tarda = assay: Intestinal E. tarda mCherry accumulation in zebrafish treated with AhR inhibitors; assay type: in vivo; settings: AhR inhibitor 1 μM or folic acid 10 μM, 3 dpf to 6 dpf
Description: For E. tarda colonization experiments, fertilized zebrafish eggs were collected, sorted and transferred into a cell culture flask containing 80 mL GZM at 0 dpf. At 3 dpf, dead embryos and 60 mL GZM were removed and replaced with 50 mL fresh GZM in each flask. To facilitate consistent commensal gut bacterial colonization, an additional 10 mL of filtered system water (5 μm filter, SLSV025LS, Millipore) were added to each flask. Overnight E. tarda mCherry culture was harvested, washed three times with GZM. 150 μL of GZM-washed E. tarda mCherry culture were inoculated into each flask. The E. tarda concentration is ˜10^6 CFU/ml. […] At 6 dpf, zebrafish larvae were subjected to fluorescence imaging analysis or CFU quantification. For fluorescence imaging analysis, zebrafish larvae were anesthetized with Tricaine ([…]), mounted in 3% methylcellulose and imaged with a Leica M205 FA upright fluorescence stereomicroscope equipped with a Leica DFC 365FX camera. For CFU quantification, digestive tracts were dissected and transferred into 1 mL sterile PBS which was then mechanically disassociated using a Tissue-Tearor (BioSpec Products, 985370). […] The mCherry+ colonies were quantified from each plate and E. tarda colony forming units (CFUs) per fish were calculated. […]

AhR = biological target: T1, AhR (Homo sapiens, UniProt P35869); settings: Kim et al., 2020; cited from earlier work
T1 sequence (P35869 11-848): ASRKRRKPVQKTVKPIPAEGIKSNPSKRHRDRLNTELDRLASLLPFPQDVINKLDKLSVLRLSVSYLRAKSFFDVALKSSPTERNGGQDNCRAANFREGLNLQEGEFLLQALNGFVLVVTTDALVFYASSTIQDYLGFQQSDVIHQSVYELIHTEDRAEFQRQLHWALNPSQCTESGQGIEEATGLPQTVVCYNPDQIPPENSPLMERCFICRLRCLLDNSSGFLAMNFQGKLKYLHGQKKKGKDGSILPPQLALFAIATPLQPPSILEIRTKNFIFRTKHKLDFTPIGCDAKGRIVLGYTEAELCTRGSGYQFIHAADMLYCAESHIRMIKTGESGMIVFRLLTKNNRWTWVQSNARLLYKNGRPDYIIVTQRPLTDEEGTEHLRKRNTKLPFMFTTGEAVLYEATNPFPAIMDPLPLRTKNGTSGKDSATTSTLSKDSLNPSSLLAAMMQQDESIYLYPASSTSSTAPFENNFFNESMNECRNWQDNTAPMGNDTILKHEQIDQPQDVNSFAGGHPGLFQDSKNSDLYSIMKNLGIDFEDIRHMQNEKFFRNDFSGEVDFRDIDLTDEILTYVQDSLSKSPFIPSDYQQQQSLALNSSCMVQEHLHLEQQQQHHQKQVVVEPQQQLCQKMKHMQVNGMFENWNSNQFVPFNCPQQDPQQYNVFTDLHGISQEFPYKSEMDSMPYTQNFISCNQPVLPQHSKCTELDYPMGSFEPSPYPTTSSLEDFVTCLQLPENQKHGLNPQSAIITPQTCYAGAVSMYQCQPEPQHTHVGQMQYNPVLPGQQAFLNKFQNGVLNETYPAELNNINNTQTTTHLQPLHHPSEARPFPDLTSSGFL

AhR signaling = settings: 0.05 μM; cited from earlier work

With `Nc1nc2ncc(CNc3ccc(C(=O)N[C@@H](CCC(=O)O)C(=O)O)cc3)nc2c(=O)[nH]1` [Folic acid] as the compound, how does the “Effect on Optovin-UV induced intestinal motility change” value (intestinal motility) read?
Its value is “insufficient to block”.

And the “Effect on E. tarda intestinal accumulation” value (E. tarda)?
The value was “insufficient to block”.

What about the “Concentration at which it acts as a competitive AhR antagonist (as low as)” value (AhR) of the same compound?
Its value is 10 ng/mL.

And the “Inhibition of AhR signaling in early zebrafish embryos” value (AhR signaling)?
The value was “inhibits”.

From patent publication US20230149355A1, “COMPOSITIONS AND METHODS FOR MODULATING TRP CHANNEL ACTIVITY” (priority 2020, published 2023)
